Experimental data published in paper PMC5225183, “Fingerprinting of neurotoxic compounds using a mouse embryonic stem cell dual luminescence reporter assay” (Archives of Toxicology, 2016).
Where two headings read alike, the source gives them in different places. Marks after values point to notes of the source that are not given here.

How the values were obtained:
[1] = test system: ESCs and ESC-derived neurons; assay: Dual luminescence reporter test system, all readouts in ESCs and ESC-derived neurons
Text: Fig. 1 Synopsis of experimental protocols. The impact of compounds on neural promoter activity (FLuc, Firefly Luciferase under the control of the Tα1 promoter), general promoter activity (RLuc, Renilla Luciferase under the control of the EF1α promoter), and amount of DNA (PI, propidium iodide fluorescence in cell homogenates) was investigated in undifferentiated mouse embryonic pluripotent stem cells (ESCs) and on ESC-derived neurons. Arrows indicate the time of measurement of the three parameters. a Protocol for testing compounds effects on ESCs. CGR8-2Luc cells were plated on gelatin-coated 96-well plates in maintenance medium (BHK21 medium containing 10 % FCS, L-glutamine, NEAA, P/S, and LIF). Twenty-four hours later, cells were exposed to compounds for forty-eight hours. b Protocol for testing compounds on ESC-derived neurons.
(§1) At day 5, cells were then re-plated (3 × 10^5 cells/cm^2) on polyornithine-coated 96-well plates in N2 medium containing DMEM, N2 supplement, penicillin/streptomycin, and 10 ng/ml basic human fibroblast growth factor (bFGF) (Invitrogen). […] To assess toxicity of compounds on undifferentiated pluripotent stem cells (ESCs), CGR8-2Luc cells were plated at 45,000 cells/cm^2 on 0.1 % gelatin-coated dishes in BHK21 medium, supplemented with 10 % fetal calf serum, L-glutamine, non-essential amino acids, penicillin/streptomycin, and leukemia inhibitory factor (LIF). After 24 h, compounds were added and incubated for 48 h, before luciferase expression and PI fluorescence were analyzed. In all experiments, methylmercury was used as a positive control at a concentration of 5 µM.
Luciferase activities were measured with a Dual-Luciferase™ Reporter system kit. CGR8-2Luc ES cells were lysed in 96-well plates according to the manufacturer’s instructions. Luminescence measurements were performed on a Fluostar Optima reader. Luminescence counts were expressed as percentage of promoter activity normalized by comparison with the control wells treated by DMSO. […] parameters were measured in homogenates of ESCs and in ESC-derived neurons: (1) FLuc, reflecting the activity of early neural promoter Tα1. FLuc increases during neuronal differentiation. Many neurotoxic compounds may affect FLuc expression, either through impact on neuronal differentiation, through changes of neuronal gene expression, or through killing of neurons.
(§2) PI was added to cell homogenates after the luciferase test, at a final concentration of 50 µg/ml and incubated for 2 h. After incubation, fluorescence intensity was measured on a Flexstation 3 microplate reader (Excitation: 544 nm ± 15 nm; Emission: 620 nm ± 15 nm). Results are expressed as percentage of control. Propidium iodide (PI) measures total DNA content as an approximation of the cell number. A decrease in PI fluorescence was interpreted as a decrease in cell number and therefore throughout the text referred to as cytotoxicity.
To describe the shape of different concentration–response curves, arbitrary scores were assigned as follows: 0 for “no change,” 1 for “down-stroke,” 2 for “bimodal profile,” and 3 for “up-stroke” (Fig. S1). A curve was classified as “down-stroke” or “up-stroke” if the change in response values comparative to control was statistically significant (p value <0.05, one-way ANOVA with post hoc Dunnett) with an additional requirement of a 30 % decrease or increase of mean response value relative to controls, respectively. If the absolute change in mean response values was below 30 % the curve was classified as “no change.” A curve was classified as “bimodal” if first up-stroke and subsequently down-stroke was observed.

[2] = test system: Tubulin α1 (Tα1) promoter; assay: cells
Text: (§3) Dual luciferase expressing CGR8-2Luc cells were obtained by transduction of mouse ESC CGR8 cells with the 2K7 EFS-Renilla Luciferase (RLuc)/Talpha1-Firefly Luciferase (FLuc) vector as previously described (Suter et al. [2006], [2009]); EFS corresponds to the short promoter of the eukaryotic translation elongation factor 1 alpha (EF1α), and Talpha1 to the Tubulin α1 (Tα1) promoter. Tα1 was selected as a promoter active in neurons, including early stages of neural differentiation. EF1α was originally selected to function as a constitutive promoter; however, it responds to cellular differentiation as well as to various chemicals, as previously shown (Kern et al. [2013]). Cells were cultured on 0.1 % gelatin-coated dishes in CGR8-2luc maintenance medium: BHK21 medium, supplemented with 10 % fetal calf serum, L-glutamine, non-essential amino acids, penicillin/streptomycin, and leukemia inhibitory factor (LIF). CGR8 cells were grown in a feeder-independent manner (embryonic pluripotent stem cells, ESCs) as described in protocol 1 (Fig. 1) before testing compounds of interest.
(§4) Fig. 1 Synopsis of experimental protocols. The impact of compounds on neural promoter activity (FLuc, Firefly Luciferase under the control of the Tα1 promoter), general promoter activity (RLuc, Renilla Luciferase under the control of the EF1α promoter), and amount of DNA (PI, propidium iodide fluorescence in cell homogenates) was investigated in undifferentiated mouse embryonic pluripotent stem cells (ESCs) and on ESC-derived neurons. Arrows indicate the time of measurement of the three parameters. a Protocol for testing compounds effects on ESCs. CGR8-2Luc cells were plated on gelatin-coated 96-well plates in maintenance medium (BHK21 medium containing 10 % FCS, L-glutamine, NEAA, P/S, and LIF). Twenty-four hours later, cells were exposed to compounds for forty-eight hours. b Protocol for testing compounds on ESC-derived neurons. CGR8-2Luc cells were co-cultured with MS5 cells to induce neural differentiation in DMEM medium containing 15 % KO-serum, NEAA, β-mercaptoethanol, and P/S. On day 5, cells were detached and seeded on polyornithine-coated plates in DMEM medium containing N2 supplement, bFGF, and P/S; compound exposure was from day 6 to day 8
as §1, with “To test compounds on ESC-derived neurons, neuronal differentiation was carried out as previously described (Suter et al. [2009]; Xu et al. [2014]). Briefly, CGR8-2Luc cells were seeded on irradiated bone marrow-derived stromal MS5 cells and cultivated for 4 days in DMEM medium containing 15 % Knock-out™ Serum Replacement, non-essential amino acids, beta-mercaptoethanol, and penicillin/streptomycin. At” for “At”
(§5) Luciferase activities were measured with a Dual-Luciferase™ Reporter system kit. CGR8-2Luc ES cells were lysed in 96-well plates according to the manufacturer’s instructions. Luminescence measurements were performed on a Fluostar Optima reader. Luminescence counts were expressed as percentage of promoter activity normalized by comparison with the control wells treated by DMSO.

[3] = Table S1, three classes; ref per compound in the footnotes of Table S1; cited from earlier work
EF1α promoter = test system: EF1α promoter
Text: as §3, §4
as §1, with “To test compounds on ESC-derived neurons, neuronal differentiation was carried out as previously described (Suter et al. [2009]; Xu et al. [2014]). Briefly, CGR8-2Luc cells were seeded on irradiated bone marrow-derived stromal MS5 cells and cultivated for 4 days in DMEM medium containing 15 % Knock-out™ Serum Replacement, non-essential amino acids, beta-mercaptoethanol, and penicillin/streptomycin. At” for “At”
as §5

[4] = test system: Tubulin α1 (Tα1) promoter
Text: as §3, §4
as §1, with “To test compounds on ESC-derived neurons, neuronal differentiation was carried out as previously described (Suter et al. [2009]; Xu et al. [2014]). Briefly, CGR8-2Luc cells were seeded on irradiated bone marrow-derived stromal MS5 cells and cultivated for 4 days in DMEM medium containing 15 % Knock-out™ Serum Replacement, non-essential amino acids, beta-mercaptoethanol, and penicillin/streptomycin. At” for “At”
as §5

ESC-derived neurons = test system: ESC-derived neurons
Text: as §4
as §1, with “To test compounds on ESC-derived neurons, neuronal differentiation was carried out as previously described (Suter et al. [2009]; Xu et al. [2014]). Briefly, CGR8-2Luc cells were seeded on irradiated bone marrow-derived stromal MS5 cells and cultivated for 4 days in DMEM medium containing 15 % Knock-out™ Serum Replacement, non-essential amino acids, beta-mercaptoethanol, and penicillin/streptomycin. At” for “At”
as §2, with “After measurement of luciferase activity, DNA quantity was determined by PI assay, as previously described (Xu et al. [2014]). PI was” for “PI was”
(§6) Lowest adverse effect level (LOAEL) was defined as the lowest tested concentrations that lead to a statistically significant decrease for a given read-out (FLuc, RLuc, and PI) compared to baseline. “Baseline” was not in all cases defined by untreated cells, but may also refer to, e.g., a state of increased activity due to low, non-toxic compound concentrations.

CGR8-2Luc ESCs = test system: CGR8-2Luc ESCs
Text: as §4
as §1, with “To test compounds on ESC-derived neurons, neuronal differentiation was carried out as previously described (Suter et al. [2009]; Xu et al. [2014]). Briefly, CGR8-2Luc cells were seeded on irradiated bone marrow-derived stromal MS5 cells and cultivated for 4 days in DMEM medium containing 15 % Knock-out™ Serum Replacement, non-essential amino acids, beta-mercaptoethanol, and penicillin/streptomycin. At” for “At”
as §2, with “After measurement of luciferase activity, DNA quantity was determined by PI assay, as previously described (Xu et al. [2014]). PI was” for “PI was”
as §6

[5] = cited from earlier work
[6] = ESC-derived neurons, 48 h exposure
[7] = undifferentiated ESCs, 48 h exposure
[8] = undifferentiated ESCs, 48 h exposure, lowest tested concentration with statistically significant decrease
[9] = ESC-derived neurons, 48 h exposure, PI assay (cytotoxicity)
[10] = undifferentiated ESCs, 48 h exposure, PI assay (cytotoxicity)
[11] = reporter activity changes in the non-cytotoxic concentration range, highest possible number 4

| Compound | class based on clinical evidence for neurotoxicity [3] | Number of non-cytotoxic changes ([1]; mouse, 48 h) | LOAEL Neurons Tα1 [2, 6] [µM] | LOAEL Neurons EF1α (EF1α promoter; [6]) [µM] | LOAEL ESC EF1α (EF1α promoter; [7]) [µM] | LOAEL ESC Tα1 [4, 8] [µM] | LOAEL Neurons DNA (ESC-derived neurons; [9]) [µM] | LOAEL ESC DNA (CGR8-2Luc ESCs; [10]) [µM] | result in the dual luminescence reporter test system [1] | LOAEL Neurons Tα1 ([2]; mouse) [µM] | LOAEL ESC EF1α (EF1α promoter; mouse) [µM] | LOAEL Neurons EF1α (EF1α promoter; mouse) [µM] | LOAEL ESC Tα1 ([4]; mouse) [µM] | LOAEL Neurons DNA (ESC-derived neurons; mouse) [µM] | LOAEL ESC DNA (CGR8-2Luc ESCs; mouse) [µM] | further results |
| --- | --- | --- | --- | --- | --- | --- | --- | --- | --- | --- | --- | --- | --- | --- | --- | --- |
| O=C(O)c1cc[c]([Hg][Cl])cc1 [4-chloromercuric benzoic acid] | Possibly (developmental) |  |  |  |  |  |  |  |  |  |  |  |  |  |  | Number of non-cytotoxic changes [1]: 1; LOAEL Neurons Tα1 [2]: 10 µM; LOAEL ESC EF1α (EF1α promoter): 5 µM; LOAEL Neurons EF1α (EF1α promoter): 100 µM; LOAEL ESC Tα1 [4]: 5 µM; LOAEL Neurons DNA (ESC-derived neurons): 100 µM; LOAEL ESC DNA (CGR8-2Luc ESCs): 5 µM |
| CN(C)CCCN1c2ccccc2Sc2ccc(Cl)cc21 [Chlorpromazine] | Well-established (developmental) | 1 | 1 | 2 | 20 | 20 | 20 | 20 |  |  |  |  |  |  |  |  |
| OC[C@@H](O)[C@@H](O)[C@H](O)[C@H](O)CO [D-mannitol] | Non-neurotoxic | 0 | >50 | >50 | >50 | >50 | >50 | >50 | negative |  |  |  |  |  |  |  |
| O=C(O)c1cccnc1 [Nicotinic acid] | Non-neurotoxic | 0 |  |  |  |  |  |  | negative | >50 | >50 | >50 | >50 | >50 | >50 |  |
| Clc1cc(Cl)c(-c2cc(Cl)c(Cl)cc2Cl)cc1Cl [PCB-153] | Well-established (developmental) |  |  |  |  |  |  |  |  |  |  |  |  |  |  | result in the dual luminescence reporter test system ([1]; ESCs and neurons, FLuc, RLuc, PI): potentially neurotoxic; Number of non-cytotoxic changes [1, 11]: 2; effect on neural promoter activity in neurons [2]: decreased; effect on general promoter activity in neurons (EF1α promoter): decreased; Concentration in humans (human exposure concentration) ([5]; human exposure concentration, ref Zimmer et al. ([2014])): 0.0003-0.002^k (human exposure concentration) µM; effect on cell number in neurons (ESC-derived neurons): without affecting the number of cells |
| O=C1NS(=O)(=O)c2ccccc21 [Saccharin] | Non-neurotoxic | 0 |  |  |  |  |  |  | negative | >50 | >50 | >50 | >50 | >50 | >50 | Concentration in humans ([5]; ref Sweatman et al. ([1981])): 218^c µM |
| Nc1ccc(S(=O)(=O)Nc2ncccn2)cc1 [Sulfadiazine] | Possibly (developmental) | 0 |  |  |  |  |  |  |  | >50 | >50 | >50 | >50 | >50 | >50 | Concentration in humans ([5]; ref Zimmer et al. ([2014])): 320^k µM |
| CCC[C@H](NC(=O)[C@@H]1[C@H]2CCC[C@H]2CN1C(=O)[C@@H](NC(=O)[C@@H](NC(=O)c1cnccn1)C1CCCCC1)C(C)(C)C)C(=O)C(=O)NC1CC1 [Telaprevir] |  | 0 | 50 |  | 50 | 50 | 50 | 50 |  |  |  |  |  |  |  | LOAEL Neurons EF1α (EF1α promoter; mouse, 48 h): 50 µM; Concentration in humans ([5]; in vivo): 5.1^k µM |
| [CH3][Sn]([CH3])([CH3])[Cl] [Trimethyltin chloride] | Well-established (developmental) |  | 5 | 0.05 | 5 | 5 | 5 | 5 |  |  |  |  |  |  |  | Number of non-cytotoxic changes [1, 11]: 1; EF1α promoter LOAEL in neurons (EF1α promoter; [6]): 50 nM |
